Results on 1 compound are retold here after PMC3313951, “CUP-1 Is a Novel Protein Involved in Dietary Cholesterol Uptake in Caenorhabditis elegans” (PLoS ONE, 2012).

Changes are numbered by the printed parent chain.

Common to all, as to test: FRET by acceptor photobleaching, DHE donor to GFP acceptor, fixed transfected HEK293-FT cells
Assay type in all cases: cell-based

Test [1] concerns the target T1, CUP-1-GFP (Cholesterol Uptake Protein-1; ZK721.1/tag-130) (Caenorhabditis elegans, UniProt Q9GYF0, Y126G/Y576G).
T1 construct: gene chup-1; full-length CUP-1 (stop codon removed) with C-terminal EGFP (pEGFP-N1), transiently expressed in HEK293-FT cells; GFP is the FRET acceptor
T1 sequence (Q9GYF0 19-756 Y126G/Y576G): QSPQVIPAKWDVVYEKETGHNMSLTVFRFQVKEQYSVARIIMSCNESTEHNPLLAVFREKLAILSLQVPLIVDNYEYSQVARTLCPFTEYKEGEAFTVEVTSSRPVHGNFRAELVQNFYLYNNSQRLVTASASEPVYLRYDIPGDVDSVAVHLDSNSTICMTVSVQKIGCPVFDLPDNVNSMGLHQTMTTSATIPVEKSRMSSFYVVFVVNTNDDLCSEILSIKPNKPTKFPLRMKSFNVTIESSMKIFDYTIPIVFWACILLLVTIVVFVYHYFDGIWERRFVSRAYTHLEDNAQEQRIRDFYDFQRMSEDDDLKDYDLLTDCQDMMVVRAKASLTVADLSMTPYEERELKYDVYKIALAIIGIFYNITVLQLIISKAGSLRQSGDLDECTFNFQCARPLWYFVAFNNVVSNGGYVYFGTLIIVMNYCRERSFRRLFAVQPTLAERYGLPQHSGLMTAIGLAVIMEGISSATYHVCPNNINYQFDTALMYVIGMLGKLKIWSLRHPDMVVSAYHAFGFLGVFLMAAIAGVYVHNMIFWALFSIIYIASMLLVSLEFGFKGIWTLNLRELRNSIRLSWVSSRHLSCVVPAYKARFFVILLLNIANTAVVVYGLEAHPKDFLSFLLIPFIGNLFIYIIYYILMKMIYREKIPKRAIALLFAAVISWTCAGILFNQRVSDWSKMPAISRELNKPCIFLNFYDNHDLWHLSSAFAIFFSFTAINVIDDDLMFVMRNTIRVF
As to conditions: 5 uM DHE, 35 min, 37 °C; double CRAC mutant.

Test [2] addresses T2, CUP-1-GFP (Cholesterol Uptake Protein-1; ZK721.1/tag-130) (Caenorhabditis elegans, UniProt Q9GYF0, Y126G).
T2 construct: gene chup-1; full-length CUP-1 (stop codon removed) with C-terminal EGFP (pEGFP-N1), transiently expressed in HEK293-FT cells
T2 sequence (Q9GYF0 19-756 Y126G): T1 sequence (Q9GYF0 19-756 Y126G/Y576G) with G558Y
As to conditions: 5 uM DHE, 35 min, 37 °C; extracellular CRAC motif mutant.

The target in test [3] is T3, CUP-1-GFP (Cholesterol Uptake Protein-1; ZK721.1/tag-130) (Caenorhabditis elegans, UniProt Q9GYF0).
T3 construct: gene chup-1; full-length CUP-1 (stop codon removed) with C-terminal EGFP (pEGFP-N1), transiently expressed in HEK293-FT cells
T3 sequence (Q9GYF0 19-756): T1 sequence (Q9GYF0 19-756 Y126G/Y576G) with G108Y, G558Y
As to conditions: 5 uM DHE, 35 min, 37 °C; soluble GFP control.

Test [4] concerns the target T4, CUP-1-GFP (Cholesterol Uptake Protein-1; ZK721.1/tag-130) (Caenorhabditis elegans, UniProt Q9GYF0, Y576G).
T4 construct: gene chup-1; full-length CUP-1 (stop codon removed) with C-terminal EGFP (pEGFP-N1), transiently expressed in HEK293-FT cells; GFP is the FRET acceptor
T4 sequence (Q9GYF0 19-756 Y576G): T1 sequence (Q9GYF0 19-756 Y126G/Y576G) with G108Y
Particulars: 5 uM DHE, 35 min, 37 °C; transmembrane CRAC motif mutant.

In the case of `CC(C)[C@@H](C)/C=C/[C@@H](C)[C@H]1CC[C@H]2C3=CC=C4C[C@@H](O)CC[C@]4(C)C3=CC[C@]12C` [DHE, Dehydroergosterol], the FRETeff in test [1] was 17.8%; in test [2], “Mutagenization of the extracellular CRAC motif did not result in a statistically significant reduction”; in test [3], above 28%; in test [4], 16.7%.
